Measurements taken from US7053175B1, “Synthetic peptides useful in biological assays for detecting infections caused by group O HIV-1 viruses” (Bio-Rad Pasteur, priority 1997, dated 2006).
No end group written: not given here.

How the values were obtained:
[1] = tested on: serum samples from patients infected with group O HIV-1 retroviruses; assay: Immunoenzymatic test: Test No. 2 (immunoreactivity with diluted sera); format: binding, human; details: solid phase peptide 2 μg/ml; for Number of samples: sera of Table V; for ABSORBANCE (OD): cyclized
Excerpt: The serum samples from patients infected with group O HIV-1 retroviruses were obtained by the Yaounde Pasteur Centre in Cameroon and were serotyped group O according to the serological algorithm described in AIDS (1977), 11, pp. 445-453. A genotyped sample (Maryland) is obtained from the United States. These samples were previously diluted in negative human serum at the dilutions given in Table V, in order to have a sufficient volume for the different immunoreactivity tests.
The synthetic peptides used were dissolved in water at a concentration of 1 mg/ml (stock solution). For the solid phase sensitization step (“coating”), the procedure was carried out as described for Example 2.
The serum samples were diluted 1/5 with a skimmed milk solution (citrate buffer supplemented with 0.01% of phenol red, 0.25% of chloroform and 0.25% of Kathon®), deposited in the wells of plates and incubated for 30 min at 40° C.
After washing with a Tris-NaCl buffer solution pH 7.4 containing 0.1% of Tween® 20 and 0.001% of sodium merthiolate, 100 μl of a solution of conjugate consisting of horseradish peroxidase-labelled anti-human IgG and IgM goat antibodies, containing as preservative 0.01% of sodium merthiolate, in solution in a citrate buffer solution supplemented with 30% glycerol and 25% normal foetal calf serum, were added to each well of the plates and then they were incubated for 30 min at 40° C.
After washing with a Tris-NaCl buffer solution pH 7.4 containing 0.1% of Tween® 20 and 0.001% of sodium merthiolate, the colour was developed as described in Example 2.
The relative absorbance (OD) (A490-A620) read in each well is proportional to the immunoreactivity of each peptide. It indicates the ability of each peptide to react with the biological sample with which the test is carried out.
The reactivity of the peptides of the invention, peptides No. 10 (14B), No. 11 (18B), No. 12 (19B), No. 14 (21B), No. 15 (22B), No. 16 (23B) all in cyclized form, was compared with that of three homologous synthetic peptides having, as sequence, a portion of the natural sequence of the envelope (env) of a group O HIV-1 retrovirus. These peptides are two peptides derived from the VAU isolate—the peptide VAU 22 AA and the peptide VAU 35 AA—and the peptide MVP 5180 (designated “MVP 5180” in Table V). The peptides VAU 22 AA and VAU 35 AA (whose structure is indicated in Example 2) and the peptide MVP 5180 comprise an immunodominant epitope of gp41.
All these peptides were used in cyclized form. The sequence of the MVP 5180 peptide is the following:
For each peptide tested, the samples were arranged into four classes (a, b, c and d) corresponding to various levels of relative absorbance read at the wavelengths A492-A620: • for a: OD<0.100, • for b: 0.100<OD<0.500, • for c: 0.500<OD<1.000, • for d: OD>1.000, thus making it possible to evaluate the degree of immunoreactivity of the peptides.

[2] = tested on: sera from patients infected with group O HIV-1 retroviruses; assay: Immunoenzymatic test of compositions containing peptides (Example 4); format: binding, human; design: key: >: signal greater than the reading capacity of the spectrophotometer; details: single peptide 2 μg/ml or composition 1 μg/ml + 1 μg/ml
Method: For this test, the procedure was carried out according to the protocol described in Example 2 and the same sera were used. The microplates used were sensitized either with peptide No. 1 (2B) cyclized, or with peptide No. 3 (4B) cyclized, or with a composition containing these two peptides (1:1 w/w). Into each well, there were deposited either 100 μl of a solution containing 2 μg/ml of peptide No. 1 (2B), or 100 μl of a solution containing 2 μg/ml of peptide No. 3 (4B), or 100 μl of a solution containing 1 μg/ml of peptide No. 1 (2B) and 1 μg/ml of peptide No. 3 (4B).

“RLLALETFIEENELLNLWGCKNRAICYTSVKWNKT (cysteine pairing not given here) [VAU 35 AA, reference compound]” gave a Number of samples ([1]; CLASS A (a: OD<0.100)) of 11, a Number of samples ([1]; CLASS B (b: 0.100<OD<0.500)) of 3 and a Number of samples ([1]; CLASS C (c: 0.500<OD<1.000)) of 0. For the same sequence, the Number of samples ([1]; CLASS D (d: OD>1.000)) was 0, the “ABSORBANCE (OD)” value ([1]; serum 258 OUDI at 1/100) was 0.058 and the “ABSORBANCE (OD)” value ([1]; serum 625 at 1/50) was 0.069. For the same sequence, the “ABSORBANCE (OD)” value ([1]; serum 3600 at 1/100) was 0.025, the “ABSORBANCE (OD)” value ([1]; serum 3613 at ¼00) was 0.250 and the “ABSORBANCE (OD)” value ([1]; serum 3653 at 1/10) was 0.021. The “ABSORBANCE (OD)” value ([1]; serum 4280 at 1/50) was 0.013, the “ABSORBANCE (OD)” value ([1]; serum 6111 at 1/100) was 0.087 and the “ABSORBANCE (OD)” value ([1]; serum DJOU at 1/100) was 0.022. The “ABSORBANCE (OD)” value ([1]; serum DO15 at 1/100) was 0.036, the “ABSORBANCE (OD)” value ([1]; serum MBASSI at 1/100) was 0.120 and the “ABSORBANCE (OD)” value ([1]; serum Maryland at ¼00) was 0.054. For the same sequence, the “ABSORBANCE (OD)” value ([1]; serum NGO at 1/50) was 0.055, the “ABSORBANCE (OD)” value ([1]; serum NJEM at 1/100) was 0.159 and the “ABSORBANCE (OD)” value ([1]; serum WANG at 1/50) was 0.025.

For “LLSLWGCRGKAVCYTSVQWNET [PEPTIDE No. 1 (2B)]”, the ABSORBANCE ([2]; serum 1062) was “>”, the ABSORBANCE ([2]; serum 1702) was 1.016 and the ABSORBANCE ([2]; serum 1754) was “>”. For the same sequence, the ABSORBANCE ([2]; serum 2294) was 0.447, the ABSORBANCE ([2]; serum 2352) was 0.205 and the ABSORBANCE ([2]; serum 2551) was “>”. The ABSORBANCE ([2]; serum 2700) was “>”, the ABSORBANCE ([2]; serum 3016) was 0.243 and the ABSORBANCE ([2]; serum 3136 (listed twice)) was 0.302. For the same sequence, the ABSORBANCE ([2]; serum 3235) was “>”, the ABSORBANCE ([2]; serum 3302) was 0.386 and the ABSORBANCE ([2]; serum 3482) was 1.473. For the same sequence, the ABSORBANCE ([2]; serum 3600) was 2.743, the ABSORBANCE ([2]; serum 3627) was 2.910 and the ABSORBANCE ([2]; serum 3771) was 0.544. The ABSORBANCE ([2]; serum 3891) was 2.780, the ABSORBANCE ([2]; serum 3935) was 0.307 and the ABSORBANCE ([2]; serum 4477*) was “>”. The ABSORBANCE ([2]; serum 4489) was “>”, the ABSORBANCE ([2]; serum 5149) was “>” and the ABSORBANCE ([2]; serum 5270) was “>”. The ABSORBANCE ([2]; serum 5931) was “>”, the ABSORBANCE ([2]; serum 6165) was 2.714 and the ABSORBANCE ([2]; serum 6198) was “>”. For the same sequence, the ABSORBANCE ([2]; serum 6627) was “>”, the ABSORBANCE ([2]; serum 6697) was “>” and the ABSORBANCE ([2]; serum 6891) was 0.062. For the same sequence, the ABSORBANCE ([2]; serum 6976) was “>”, the ABSORBANCE ([2]; serum 6998) was “>” and the ABSORBANCE ([2]; serum 7258) was 2.477. The ABSORBANCE ([2]; serum 7443) was “>”.

With “LLSSWGCKGRLVCYTSVQWNET [PEPTIDE No. 3 (4B)]” the ABSORBANCE ([2]; serum 1062) was “>”, the ABSORBANCE ([2]; serum 1702) was “>” and the ABSORBANCE ([2]; serum 1754) was “>”. The ABSORBANCE ([2]; serum 2294) was “>”, the ABSORBANCE ([2]; serum 2352) was “>” and the ABSORBANCE ([2]; serum 2551) was “>”. The ABSORBANCE ([2]; serum 2700) was “>”, the ABSORBANCE ([2]; serum 3016) was “>” and the ABSORBANCE ([2]; serum 3136 (listed twice)) was “>”. The ABSORBANCE ([2]; serum 3235) was “>”, the ABSORBANCE ([2]; serum 3302) was “>” and the ABSORBANCE ([2]; serum 3482) was “>”. The ABSORBANCE ([2]; serum 3600) was “>”, the ABSORBANCE ([2]; serum 3627) was “>” and the ABSORBANCE ([2]; serum 3771) was “>”. The ABSORBANCE ([2]; serum 3891) was “>”, the ABSORBANCE ([2]; serum 3935) was “>” and the ABSORBANCE ([2]; serum 4477*) was “>”. The ABSORBANCE ([2]; serum 4489) was “>”, the ABSORBANCE ([2]; serum 5149) was “>” and the ABSORBANCE ([2]; serum 5270) was “>”. For the same sequence, the ABSORBANCE ([2]; serum 5931) was “>”, the ABSORBANCE ([2]; serum 6165) was “>” and the ABSORBANCE ([2]; serum 6198) was “>”. The ABSORBANCE ([2]; serum 6627) was “>”, the ABSORBANCE ([2]; serum 6697) was “>” and the ABSORBANCE ([2]; serum 6891) was “>”. The ABSORBANCE ([2]; serum 6976) was “>”, the ABSORBANCE ([2]; serum 6998) was “>” and the ABSORBANCE ([2]; serum 7258) was “>”. The ABSORBANCE ([2]; serum 7443) was “>”.

Work on “LLNLWGCKNRAICYTSVKWNKT (cysteine pairing not given here) [VAU 22 AA, reference compound]” yielded a Number of samples ([1]; CLASS A (a: OD<0.100)) of 7, a Number of samples ([1]; CLASS B (b: 0.100<OD<0.500)) of 7 and a Number of samples ([1]; CLASS C (c: 0.500<OD<1.000)) of 0. For the same sequence, the Number of samples ([1]; CLASS D (d: OD>1.000)) was 0, the “ABSORBANCE (OD)” value ([1]; serum 258 OUDI at 1/100) was 0.100 and the “ABSORBANCE (OD)” value ([1]; serum 625 at 1/50) was 0.165. The “ABSORBANCE (OD)” value ([1]; serum 3600 at 1/100) was 0.058, the “ABSORBANCE (OD)” value ([1]; serum 3613 at ¼00) was 0.396 and the “ABSORBANCE (OD)” value ([1]; serum 3653 at 1/10) was 0.310. For the same sequence, the “ABSORBANCE (OD)” value ([1]; serum 4280 at 1/50) was 0.021, the “ABSORBANCE (OD)” value ([1]; serum 6111 at 1/100) was 0.180 and the “ABSORBANCE (OD)” value ([1]; serum DJOU at 1/100) was 0.042. For the same sequence, the “ABSORBANCE (OD)” value ([1]; serum DO15 at 1/100) was 0.075, the “ABSORBANCE (OD)” value ([1]; serum MBASSI at 1/100) was 0.257 and the “ABSORBANCE (OD)” value ([1]; serum Maryland at ¼00) was 0.168. The “ABSORBANCE (OD)” value ([1]; serum NGO at 1/50) was 0.040, the “ABSORBANCE (OD)” value ([1]; serum NJEM at 1/100) was 0.024 and the “ABSORBANCE (OD)” value ([1]; serum WANG at 1/50) was 0.041.
